Test results: US8389523B2, “Substituted quinoxaline and an agrochemical composition thereof” (Kumiai Chemical Industry Co., Ltd., priority 2007, dated 2013)

Assays:
[1] = system: Scirpus juncoides Roxb. var. ohwianus. T. Koyama; test: Herbicidal effects in paddy field soil treatment (Test Example 1); type: in vivo; parameters: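 grade 0 to 5 of growth suppression where 5 is 90% or more and 0 below 10%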; conditions: paddy field soil treatment; 1000 g of the active ingredient per hectare; wettable powder added dropwise on water surface; 21st day after treatment
In short: (§1)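 Sow seeds in puddled, leveled paddy soil; waterlog to 3 cm depth. On the following day apply water-diluted wettable powder onto the water surface (1000 g a.i./ha). Grow in greenhouse and assess herbicidal effect at day 21.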

[2] = system: Monochoria vaginalis (Burm. f.) Presl var. plantaginea (Roxb.) Solms-Laub.; test: as above; type: in vivo; parameters: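 grade 0 to 5 of growth suppression where 5 is 90% or more and 0 below 10%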; conditions: paddy field soil treatment; 1000 g of the active ingredient per hectare; wettable powder added dropwise on water surface; 21st day after treatment
In short: as §1

[3] = system: Echinochloa oryzicola Vasing; test: as above; type: in vivo; parameters: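 grade 0 to 5 of growth suppression where 5 is 90% or more and 0 below 10%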; conditions: paddy field soil treatment; 1000 g of the active ingredient per hectare; wettable powder added dropwise on water surface; 21st day after treatment
In short: as §1

Amaranthus viridis L. [4] = test: Herbicidal effects in upland field foliar treatment (Test Example 3); type: in vivo; parameters: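 grade 0 to 5 of growth suppression where 5 is 90% or more and 0 below 10%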; conditions: criteria of Table 138; for herbicidal effect (index) on Amaranthus viridis L.: 1000 g active ingredient per hectare, 14th day after treatment; for herbicidal effects on Amaranthus viridis L.: 1000 g of the active ingredient per hectare, 14th day after the treatment, wettable powder
In short: (§2)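 Seeds sown in upland soil, grown 2 weeks in greenhouse; whole-plant overhead spray of diluted wettable powder at 1000 g a.i./ha (1000 L/ha); kept in greenhouse; effects graded by criteria at 14 d.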

[5] = system: Abutilon theophrasti medicus; test: as above; type: in vivo; parameters: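 grade 0 to 5 of growth suppression where 5 is 90% or more and 0 below 10%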; conditions: criteria of Table 138; for herbicidal effect (index) on Abutilon theophrasti medicus: 1000 g active ingredient per hectare, 14th day after treatment; for herbicidal effects on Abutilon theophrasti medicus: 1000 g of the active ingredient per hectare, 14th day after the treatment, wettable powder
In short: as §2

[6] = system: Echinochloa crus-galli (L.) P. Beauv. var. crus-galli; test: as above; type: in vivo; parameters: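 grade 0 to 5 of growth suppression where 5 is 90% or more and 0 below 10%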; conditions: criteria of Table 138; for herbicidal effect (index) on Echinochloa crus-galli (L.) P. Beauv. var. crus-galli: 1000 g active ingredient per hectare, 14th day after treatment; for herbicidal effects on Echinochloa crus-galli (L.) P. Beauv. var. crus-galli: 1000 g of the active ingredient per hectare, 14th day after the treatment, wettable powder
In short: as §2

Amaranthus viridis L. [7] = test: Herbicidal effects in upland field soil treatment (Test Example 2); type: in vivo; parameters: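 grade 0 to 5 of growth suppression where 5 is 90% or more and 0 below 10%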; conditions: 1000 g active ingredient per hectare, 21st day after treatment, criteria of Table 138
In short: (§3)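 Upland soil, seeds sown and covered → diluted WP sprayed uniformly onto soil surface (1000 L/ha; 1000 g a.i./ha) → greenhouse → effect scored day 21.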

[8] = system: Abutilon theophrasti medicus; test: as above; type: in vivo; parameters: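 grade 0 to 5 of growth suppression where 5 is 90% or more and 0 below 10%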; conditions: 1000 g active ingredient per hectare, 21st day after treatment, criteria of Table 138
In short: as §3

Row | melting point | SMILES | Herbicidal effects index, Scirpus juncoides Roxb. var. ohwianus. T. Koyama [1] | Herbicidal effects index, Monochoria vaginalis (Burm. f.) Presl var. plantaginea (Roxb.) Solms-Laub. [2] | Herbicidal effects index, Echinochloa oryzicola Vasing [3] | herbicidal effect (index) on Amaranthus viridis L. (Amaranthus viridis L. [4]) | herbicidal effect (index) on Abutilon theophrasti medicus [5] | herbicidal effect (index) on Echinochloa crus-galli (L.) P. Beauv. var. crus-galli [6] | herbicidal effect (index) on Amaranthus viridis L. (Amaranthus viridis L. [7]) | herbicidal effect (index) on Abutilon theophrasti medicus [8] | herbicidal effects on Amaranthus viridis L. (Amaranthus viridis L. [4]) | herbicidal effects on Abutilon theophrasti medicus [5] | herbicidal effects on Echinochloa crus-galli (L.) P. Beauv. var. crus-galli [6]
1 | 191 to 192 °C | Cn1c(=O)c(C(=O)C2=C(O)CCCC2=O)nc2ccccc21 [I-2, 3-(2-hydroxy-6-oxo-1-cyclohexenecarbonyl)-1-methylquinoxalin-2(1H)-one] | 5 | 5 | 4 | 5 | 5 | 4 | 5 | 5 |  |  | 
2 |  | O=C1CCCC(O)=C1C(=O)c1nc2ccccc2n(-c2cccc([N+](=O)[O-])c2)c1=O [II-130] | 5 | 5 | 5 |  |  |  | 5 | 5 | 5 | 5 | 5
3 |  | O=C1CCCC(O)=C1C(=O)c1nc2ccccc2n(-c2nc(C(F)(F)F)co2)c1=O [I-268] | 5 | 5 | 5 | 5 | 5 | 5 | 5 | 5 |  |  | 
4 |  | CC1(C)CC(=O)C(C(=O)c2nc3cccnc3n(-c3ccccc3)c2=O)=C(O)C1 [IV-3] | 5 | 5 | 5 |  |  |  | 5 | 5 | 5 | 5 | 5
5 |  | CS(=O)(=O)c1ccc(-n2c(=O)c(C(=O)C3=C(O)CCCC3=O)nc3ccccc32)cc1 [II-125] | 5 | 5 | 5 |  |  |  | 5 | 5 | 5 | 5 | 5
6 |  | Cc1cc(-n2c(=O)c(C(=O)C3=C(O)C4CCC(C4)C3=O)nc3ccccc32)no1 (centres unmarked) [I-148] | 5 | 5 | 5 | 5 | 5 | 5 | 5 | 5 |  |  | 
7 |  | Cn1c(=O)c(C(=O)C2=C(O)CCCC2=O)nc2ccc(F)cc21 [I-221] | 5 | 5 | 5 | 5 | 5 | 4 | 5 | 5 |  |  | 
8 |  | COc1ccc(-n2c(=O)c(C(=O)C3=C(O)CCCC3=O)nc3ccc(F)cc32)cc1 [II-188] | 5 | 5 | 5 |  |  |  | 5 | 5 | 5 | 5 | 4
9 |  | O=C1CCCC(O)=C1C(=O)c1nc2ccccc2n(-c2nccs2)c1=O [I-159] | 5 | 5 | 5 | 5 | 5 | 4 | 5 | 5 |  |  | 
10 |  | O=C1CCCC(O)=C1C(=O)c1nc2cccnc2n(-c2ccc(C3CC3)cc2)c1=O [IV-33] | 5 | 5 | 5 |  |  |  | 5 | 5 | 5 | 5 | 5
11 |  | CC1(C)C(=O)C(C(=O)c2nc3ccccc3n(-c3ccccc3)c2=O)=C(O)C(C)(C)C1=O [II-5] | 5 | 5 | 5 | 5 | 5 | 5 | 5 | 5 |  |  | 
12 |  | CCS(=O)(=O)Cn1c(=O)c(C(=O)C2=C(O)CCCC2=O)nc2ccccc21 [Compound I-82] | 5 | 5 | 5 | 5 | 5 | 4 | 5 | 5 |  |  | 
13 |  | O=C1CCCC(O)=C1C(=O)c1nc2ccccc2n(-c2ccc(C3CC3)cc2)c1=O [II-33] | 5 | 5 | 5 |  |  |  | 5 | 4 | 5 | 5 | 5
14 |  | COc1ccc(-n2c(=O)c(C(=O)C3=C(O)CCCC3=O)nc3cc(F)c(OC)cc32)cc1 [II-263] | 5 | 5 | 5 |  |  |  | 5 | 4 | 5 | 4 | 5
15 |  | COCCn1c(=O)c(C(=O)C2=C(O)CCCC2=O)nc2cccc(Cl)c21 [I-230] | 5 | 5 | 5 | 5 | 5 | 5 | 5 | 4 |  |  | 
16 |  | Cc1cc(-n2c(=O)c(C(=O)C3=C(O)CCCC3=O)nc3cc(F)ccc32)no1 [I-281] | 5 | 5 | 5 | 5 | 5 | 5 | 5 | 5 |  |  | 
17 |  | CCn1c(=O)c(C(=O)C2=C(O)CCCC2=O)nc2ccccc21 [Compound I-7] | 5 | 5 | 5 | 5 | 5 | 4 | 5 | 5 |  |  | 
